Reference: US20050215551A1, “1-[2H-1-benzopyran-2-one-8-yl]- piperazine derivatives for the treatment of movement disorders” (SOLVAY PHARMACEUTICALS B.V., priority 2004, published 2005)

Tests used:
[1] = molecular target: Neurokinin-NK3 (Homo sapiens, UniProt P29371); experiment: Receptor binding Neurokinin-NK3; settings: radioligand [3H]-SR 142801, read-out: Ki(nM) Compound 1
Procedure: (§1) Receptor binding data were obtained by CEREP (128, rue Danton, 92500 Rueil-Malmaison, France) or at Solvay Pharmaceuticals B.V., using well documented standard procedures. Affinity for 5-HT1A receptors for instance, was determined by testing the ability of the compounds of the invention to displace [^3H]-2-(di-n-propylamino)-8-hydroxytetralin ([^3H]-8-OH-DPAT) from its specific binding sites in rat frontal cortex homogenates. This test is based on the method described by Gozlan et al. (Nature, 305, (1983), pages 140-142).
(§2) The binding data collected in the table below were either obtained by CEREP (128, rue Danton, 92500 Rueil-Malmaison, France) or at Solvay Pharmaceuticals B.V., using well documented standard procedures.

[2] = molecular target: 5-HT5 (Homo sapiens, UniProt P47898); experiment: Receptor binding 5-HT5; settings: radioligand [3H]-LSD, read-out: Ki(nM) Compound 1
Chain of 5-HT5 (P47898 whole entry): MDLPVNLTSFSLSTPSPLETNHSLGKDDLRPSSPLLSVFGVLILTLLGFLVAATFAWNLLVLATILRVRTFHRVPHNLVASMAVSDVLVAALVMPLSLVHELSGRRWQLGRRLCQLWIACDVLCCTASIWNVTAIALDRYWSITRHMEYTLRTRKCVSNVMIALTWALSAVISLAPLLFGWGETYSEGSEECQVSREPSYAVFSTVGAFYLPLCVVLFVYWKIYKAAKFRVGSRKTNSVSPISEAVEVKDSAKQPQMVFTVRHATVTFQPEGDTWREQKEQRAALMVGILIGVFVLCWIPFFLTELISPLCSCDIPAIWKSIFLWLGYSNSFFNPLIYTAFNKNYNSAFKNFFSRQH
Procedure: as §1, §2

[3] = molecular target: T1, 5-HT1A (Rattus norvegicus, UniProt P19327); experiment: In vivo 5-HT1A agonism: lower lip retraction (LLR); settings: 60 minutes after oral administration
T1 construct: from tissue; host or cells: whole animal (in vivo behavioural test)
T1 sequence (P19327 whole entry): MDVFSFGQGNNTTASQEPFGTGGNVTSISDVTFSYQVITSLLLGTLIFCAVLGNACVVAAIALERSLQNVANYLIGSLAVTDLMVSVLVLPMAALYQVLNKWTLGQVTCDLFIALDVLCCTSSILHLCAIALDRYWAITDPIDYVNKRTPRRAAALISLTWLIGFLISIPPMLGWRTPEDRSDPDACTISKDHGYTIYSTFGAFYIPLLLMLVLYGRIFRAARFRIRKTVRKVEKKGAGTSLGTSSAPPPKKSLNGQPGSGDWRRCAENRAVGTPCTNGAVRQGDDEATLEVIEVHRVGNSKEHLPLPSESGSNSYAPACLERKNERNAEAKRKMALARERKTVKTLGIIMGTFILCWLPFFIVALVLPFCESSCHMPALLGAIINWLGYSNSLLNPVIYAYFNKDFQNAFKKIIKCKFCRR
Procedure: Lower lip retraction was measured according to the method described by Berendsen et al., (Pharmacol. Biochem. Behav. 33, (1989), 821-827).

[4] = molecular target: Dopamine-D3 (Homo sapiens, UniProt P35462); experiment: Receptor binding Dopamine-D3; settings: radioligand [3H]-spiperone, read-out: Ki(nM) Compound 1
Procedure: as §1, §2

[5] = molecular target: 5-HT1A (Homo sapiens, UniProt P08908); experiment: Receptor binding 5-HT1A; settings: radioligand [3H]-8-OH-DPAT, read-out: Ki(nM) Compound 1
Chain of 5-HT1A (Homo sapiens, UniProt P08908) (P08908 whole entry): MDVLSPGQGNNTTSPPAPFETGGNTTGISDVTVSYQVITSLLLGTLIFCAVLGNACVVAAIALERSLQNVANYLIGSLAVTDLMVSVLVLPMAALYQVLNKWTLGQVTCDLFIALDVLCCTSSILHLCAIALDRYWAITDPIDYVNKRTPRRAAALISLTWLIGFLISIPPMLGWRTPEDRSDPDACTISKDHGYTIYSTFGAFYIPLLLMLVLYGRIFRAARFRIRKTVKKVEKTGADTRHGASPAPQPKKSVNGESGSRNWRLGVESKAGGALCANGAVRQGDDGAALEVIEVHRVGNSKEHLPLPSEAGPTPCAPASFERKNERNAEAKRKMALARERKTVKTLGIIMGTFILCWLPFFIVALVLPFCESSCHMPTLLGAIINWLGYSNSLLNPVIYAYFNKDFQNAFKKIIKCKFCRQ

[6] = molecular target: bradykinin (Homo sapiens, UniProt P30411); experiment: Receptor binding bradykinin; settings: radioligand [3H]-bradykinin, read-out: Ki(nM) Compound 1
Procedure: as §1, §2

[7] = molecular target: CCKB (Homo sapiens, UniProt P32239); experiment: Receptor binding CCKB; settings: radioligand [3H]-CCK8, read-out: Ki(nM) Compound 1
Chain of CCKB (P32239 whole entry): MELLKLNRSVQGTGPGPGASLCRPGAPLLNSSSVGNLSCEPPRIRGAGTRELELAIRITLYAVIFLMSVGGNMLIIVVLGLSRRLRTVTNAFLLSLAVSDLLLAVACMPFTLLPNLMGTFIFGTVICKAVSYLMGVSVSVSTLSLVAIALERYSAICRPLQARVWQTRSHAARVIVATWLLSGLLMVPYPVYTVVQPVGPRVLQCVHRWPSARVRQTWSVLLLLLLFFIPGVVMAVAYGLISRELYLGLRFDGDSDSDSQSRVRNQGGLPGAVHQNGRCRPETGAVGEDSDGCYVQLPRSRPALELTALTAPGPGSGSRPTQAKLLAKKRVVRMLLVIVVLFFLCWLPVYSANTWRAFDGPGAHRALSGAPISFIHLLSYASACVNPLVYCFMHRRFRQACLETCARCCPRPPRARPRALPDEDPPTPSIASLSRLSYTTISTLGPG
Procedure: as §1, §2

[8] = molecular target: Glycine strychn. insens. (Rattus norvegicus, UniProt P35439); experiment: Receptor binding Glycine strychn. insens.; settings: radioligand [3H]-MDL105519, read-out: Ki(nM) Compound 1
Procedure: as §1, §2

[9] = molecular target: CCR1 (Homo sapiens, UniProt P32246); experiment: Receptor binding CCR1; settings: radioligand [125I]-MIP-1a, read-out: Ki(nM) Compound 1
Procedure: as §1, §2

[10] = molecular target: Adenosine-A1 (Homo sapiens, UniProt P30542); experiment: Receptor binding Adenosine-A1; settings: radioligand [3H]-DPCPX, read-out: Ki(nM) Compound 1
Procedure: as §1, §2

[11] = molecular target: Neurotensin-NT1 (Homo sapiens, UniProt P30989); experiment: Receptor binding Neurotensin-NT1; settings: radioligand [125I]-neurotensin, read-out: Ki(nM) Compound 1
Procedure: as §1, §2

[12] = molecular target: Galanin-GAL2 (Homo sapiens, UniProt O43603); experiment: Receptor binding Galanin-GAL2; settings: radioligand [125I]-galanin, read-out: Ki(nM) Compound 1
Procedure: as §1, §2

[13] = molecular target: Muscarine-M2 (Homo sapiens, UniProt P08172); experiment: Receptor binding Muscarine-M2; settings: radioligand [3H]-AFDX-384, read-out: Ki(nM) Compound 1
Chain of Muscarine-M2 (P08172 whole entry): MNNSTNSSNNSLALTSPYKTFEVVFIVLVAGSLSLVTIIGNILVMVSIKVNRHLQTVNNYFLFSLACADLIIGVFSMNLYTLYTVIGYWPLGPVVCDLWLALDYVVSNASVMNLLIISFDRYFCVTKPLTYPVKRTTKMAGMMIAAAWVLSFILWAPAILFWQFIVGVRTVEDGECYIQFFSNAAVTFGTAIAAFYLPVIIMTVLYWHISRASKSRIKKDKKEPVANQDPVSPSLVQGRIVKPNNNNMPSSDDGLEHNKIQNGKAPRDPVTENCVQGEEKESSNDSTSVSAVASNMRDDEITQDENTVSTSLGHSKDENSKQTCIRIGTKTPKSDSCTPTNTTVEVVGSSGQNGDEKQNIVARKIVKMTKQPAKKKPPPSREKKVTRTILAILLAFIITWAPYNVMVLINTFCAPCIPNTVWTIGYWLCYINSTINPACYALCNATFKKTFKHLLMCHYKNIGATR
Procedure: as §1, §2

[14] = molecular target: Dopaminereuptake (Homo sapiens, UniProt Q01959); experiment: Binding Dopamine reuptake; settings: radioligand [3H]-GBR 12935, read-out: Ki(nM) Compound 1
Procedure: as §1, §2

[15] = molecular target: μ-opiate (Rattus norvegicus, UniProt P33535); experiment: Receptor binding μ-opiate; settings: radioligand [3H]-DAMGO, read-out: Ki(nM) Compound 1
Chain of μ-opiate (P33535 whole entry): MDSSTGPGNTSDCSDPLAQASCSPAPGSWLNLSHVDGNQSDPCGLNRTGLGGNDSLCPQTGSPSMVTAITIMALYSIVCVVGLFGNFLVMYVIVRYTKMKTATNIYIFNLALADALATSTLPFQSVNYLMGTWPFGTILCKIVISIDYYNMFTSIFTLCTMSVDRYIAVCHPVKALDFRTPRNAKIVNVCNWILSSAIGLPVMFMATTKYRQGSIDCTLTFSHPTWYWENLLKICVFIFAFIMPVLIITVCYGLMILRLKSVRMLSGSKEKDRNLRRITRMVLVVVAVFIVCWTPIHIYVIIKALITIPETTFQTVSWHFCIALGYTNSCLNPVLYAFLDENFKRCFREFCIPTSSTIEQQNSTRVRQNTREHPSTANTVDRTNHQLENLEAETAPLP
Procedure: as §1, §2

[16] = molecular target: Histamine-H2 (Homo sapiens, UniProt P25021); experiment: Receptor binding Histamine-H2; settings: radioligand [125I]-APT, read-out: Ki(nM) Compound 1
Procedure: as §1, §2

[17] = molecular target: β1-adrenergic (Homo sapiens, UniProt P08588); experiment: Receptor binding β1-adrenergic; settings: radioligand [3H]-CGP 12177, read-out: Ki(nM) Compound 1
Chain of β1-adrenergic (P08588 whole entry): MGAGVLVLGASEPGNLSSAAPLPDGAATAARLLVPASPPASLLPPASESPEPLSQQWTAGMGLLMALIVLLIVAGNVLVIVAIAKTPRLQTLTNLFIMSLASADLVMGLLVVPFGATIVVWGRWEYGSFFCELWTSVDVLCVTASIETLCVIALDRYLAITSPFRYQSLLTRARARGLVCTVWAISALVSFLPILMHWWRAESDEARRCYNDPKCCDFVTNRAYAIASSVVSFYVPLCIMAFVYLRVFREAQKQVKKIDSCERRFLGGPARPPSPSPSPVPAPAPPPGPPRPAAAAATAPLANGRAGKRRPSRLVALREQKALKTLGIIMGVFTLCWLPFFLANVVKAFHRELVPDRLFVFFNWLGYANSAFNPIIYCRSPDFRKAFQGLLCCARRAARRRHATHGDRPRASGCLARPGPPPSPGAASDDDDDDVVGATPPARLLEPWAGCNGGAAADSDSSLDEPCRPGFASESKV
Procedure: as §1, §2

[18] = molecular target: 5-HT7 (Homo sapiens, UniProt P34969); experiment: Receptor binding 5-HT7; settings: radioligand [3H]-LSD, read-out: Ki(nM) Compound 1
Procedure: as §1, §2

[19] = molecular target: Prostaglandin-H2 (Homo sapiens, UniProt P21731); experiment: Receptor binding Prostaglandin-H2; settings: radioligand [3H]-SQ 29548, read-out: Ki(nM) Compound 1
Chain of Prostaglandin-H2 (P21731 whole entry): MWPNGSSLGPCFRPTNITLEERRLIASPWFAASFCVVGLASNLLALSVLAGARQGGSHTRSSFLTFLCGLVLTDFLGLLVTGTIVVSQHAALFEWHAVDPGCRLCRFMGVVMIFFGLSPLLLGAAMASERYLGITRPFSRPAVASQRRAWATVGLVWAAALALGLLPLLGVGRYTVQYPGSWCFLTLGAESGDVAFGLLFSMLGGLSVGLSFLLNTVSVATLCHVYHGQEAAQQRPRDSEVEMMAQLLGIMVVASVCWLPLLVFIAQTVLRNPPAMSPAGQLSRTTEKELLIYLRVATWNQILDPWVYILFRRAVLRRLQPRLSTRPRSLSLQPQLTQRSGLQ
Procedure: as §1, §2

[20] = molecular target: α1B-adrenergic (Rattus norvegicus, UniProt P15823); experiment: Receptor binding α1B-adrenergic; settings: radioligand [3H]-prazosin, read-out: Ki(nM) Compound 1
Chain of α1B-adrenergic (P15823 whole entry): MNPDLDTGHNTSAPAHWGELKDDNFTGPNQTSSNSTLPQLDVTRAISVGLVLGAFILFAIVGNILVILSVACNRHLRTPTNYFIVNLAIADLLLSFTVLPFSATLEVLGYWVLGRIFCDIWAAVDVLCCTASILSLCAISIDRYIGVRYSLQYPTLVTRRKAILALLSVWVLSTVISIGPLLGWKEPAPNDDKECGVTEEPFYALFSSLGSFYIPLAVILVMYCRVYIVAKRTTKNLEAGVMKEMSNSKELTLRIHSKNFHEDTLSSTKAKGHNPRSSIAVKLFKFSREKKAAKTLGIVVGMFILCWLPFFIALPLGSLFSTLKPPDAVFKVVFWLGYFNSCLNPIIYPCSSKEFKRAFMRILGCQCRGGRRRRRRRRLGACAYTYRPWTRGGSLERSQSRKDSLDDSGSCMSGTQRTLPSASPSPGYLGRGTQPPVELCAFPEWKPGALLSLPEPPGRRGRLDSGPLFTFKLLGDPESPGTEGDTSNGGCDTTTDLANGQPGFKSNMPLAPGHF
Procedure: as §1, §2

[21] = molecular target: 5-HT2A (Homo sapiens, UniProt P28223); experiment: Receptor binding 5-HT2A; settings: radioligand [3H]-ketanserin, read-out: Ki(nM) Compound 1
Chain of 5-HT2A (P28223 whole entry): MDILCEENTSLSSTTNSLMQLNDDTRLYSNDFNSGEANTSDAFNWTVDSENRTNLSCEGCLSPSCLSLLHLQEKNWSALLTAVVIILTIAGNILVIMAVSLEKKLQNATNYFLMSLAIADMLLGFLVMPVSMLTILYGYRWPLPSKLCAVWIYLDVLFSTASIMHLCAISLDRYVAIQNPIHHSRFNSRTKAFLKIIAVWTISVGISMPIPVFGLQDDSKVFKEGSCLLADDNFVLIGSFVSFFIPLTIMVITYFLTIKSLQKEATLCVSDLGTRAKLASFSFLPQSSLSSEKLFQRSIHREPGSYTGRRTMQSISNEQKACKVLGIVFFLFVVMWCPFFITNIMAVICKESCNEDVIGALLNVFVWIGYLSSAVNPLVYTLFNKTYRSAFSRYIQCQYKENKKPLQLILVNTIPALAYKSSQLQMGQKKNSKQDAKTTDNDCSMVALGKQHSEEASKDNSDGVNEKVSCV
Procedure: as §1, §2

[22] = molecular target: NAreuptake (Homo sapiens, UniProt P23975); experiment: Binding NA reuptake; settings: radioligand [3H]-nisoxetin, read-out: Ki(nM) Compound 1
Chain of NAreuptake (P23975 whole entry): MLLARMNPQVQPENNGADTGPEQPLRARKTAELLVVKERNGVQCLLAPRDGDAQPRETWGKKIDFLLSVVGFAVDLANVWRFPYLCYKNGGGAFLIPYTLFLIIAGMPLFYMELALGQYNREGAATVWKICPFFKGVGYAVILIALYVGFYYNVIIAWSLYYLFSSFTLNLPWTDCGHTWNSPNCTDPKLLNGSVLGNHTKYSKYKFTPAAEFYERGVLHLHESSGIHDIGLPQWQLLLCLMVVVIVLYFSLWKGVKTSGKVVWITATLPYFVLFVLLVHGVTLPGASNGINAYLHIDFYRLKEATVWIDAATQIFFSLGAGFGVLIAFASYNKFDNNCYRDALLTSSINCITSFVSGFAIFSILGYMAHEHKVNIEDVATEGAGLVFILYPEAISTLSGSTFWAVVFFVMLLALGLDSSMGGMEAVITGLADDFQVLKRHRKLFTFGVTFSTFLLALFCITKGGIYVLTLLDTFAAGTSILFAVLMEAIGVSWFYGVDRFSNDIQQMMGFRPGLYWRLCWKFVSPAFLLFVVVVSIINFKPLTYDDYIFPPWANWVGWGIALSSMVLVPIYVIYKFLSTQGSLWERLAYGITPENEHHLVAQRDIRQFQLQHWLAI
Procedure: as §1, §2

[23] = molecular target: Galanin-GAL1 (Homo sapiens, UniProt P47211); experiment: Receptor binding Galanin-GAL1; settings: radioligand [125I]-galanin, read-out: Ki(nM) Compound 1
Procedure: as §1, §2

Nc1cc2cccc(N3CCNCC3)c2oc1=O [Compound 1, 3-amino-8-(1-piperazinyl)-2H-1-benzopyran-2-one]
Ki [1]: > 1000 nM | Ki [2]: 100 nM | ED50 [3]: 0.12 mg/kg | Ki [4]: > 1000 nM | Ki [5]: 0.25 nM | Ki [6]: > 1000 nM | Ki [7]: > 1000 nM | Ki [8]: > 10000 nM | Ki [9]: > 1000 nM | Ki [10]: > 1000 nM | Ki [11]: > 1000 nM | Ki [12]: > 1000 nM | Ki [13]: > 1000 nM | Ki [14]: > 1000 nM | Ki [15]: > 1000 nM | Ki [16]: > 1000 nM | Ki [17]: 50 nM | Ki [18]: 3.2 nM | Ki [19]: > 1000 nM | Ki [20]: > 1000 nM | Ki [21]: 630 nM | Ki [22]: > 1000 nM | Ki [23]: > 1000 nM
